Assays:
[1] = tested on: phenyl-p-quinone writhing; test: phenyl-p-quinone writhing assay in mice (analgesic); type: in vivo, mouse (male, Charles River, CD-1); details: for Analgesic Activity, % Inhibition of Writhing: mouse, screening dose of 20 mg/kg, s.c.
Protocol: The procedure employed to determine analgetic utility is a modification of the phenyl-p-quinone writhing assay in mice, a standard assay for analgetic activity [Proc. Soc. Exptl. […] The solution is administered to the subject mice intraperitoneally at a dose of 10 ml per kg of body weight. A characteristic "writhe", an inward rotation of one or more feet with twisting and turning of the trunk, drawing in of the abdominal wall, lordosis and arching of the back, is produced.
A total of 28 male mice (Charles River, CD-1), weighing 18 to 30 grams, are employed for a time response. The subject animals receive food and water ad libitum. Test compounds are dissolved in distilled water, or suspended in distilled water containing one drop of a suitable surfactant, such as Tween-80.
Four groups of five animals (20 animals) are given the test compound subcutaneously (s.c.) or orally (p.o.) at 15, 30, 45 and 60 minutes prior to administration of the phenyl-p-quinone. A control group (2 animals per group) receive an equal volume of the vehicle. After the administration of the phenyl-p-quinone, the mice are placed separately in one liter beakers, and after five minutes, are observed for ten minutes. The number of writhes for each animal is recorded. The following formula is used to compute the percent inhibition: [formula]
A dose range determination is run in the same manner as the time response except 10 animals per group are tested at the peak time of test drug activity. Fifty animals, 4 test drug groups, and a vehicle control are employed. Animals are dosed and tested in a randomized manner. The time period with the greatest percent of inhibition is considered the peak time.

[2] = tested on: adjuvant-induced polyarthritis syndrome; test: adjuvant-induced polyarthritis syndrome in rats; type: in vivo, rat (male Charles River-Wistar Lewis); details: rat, p.o., daily for 21 days
Protocol: This activity was measured by a procedure similar to that described by C. M. Pearson and F. D. Wood, Arthritis and Rheumatism, 2, 440 (1959).
Groups of 10 male Charles River-Wistar Lewis rats weighing 150 to 175 g were individually housed and maintained on a regular rat chow diet. Water was given ad libitum. The adjuvant was prepared by suspending 75 mg of Mycobacterium butyricum (Difco Laboratories, Detroit, Mich.) in 10 ml of white paraffin oil with continuous stirring for 2 hours at room temperature prior to administration. Test compounds are prepared by suspending the drug in water, adding one drop of Tween 80 per 10 ml of suspension, and homogenizing. The adjuvant suspension (0.1 ml) was injected into the footpad of the left hind paw of the rat. Test compound suspensions were adminstered orally (10 ml/kg) the day before adjuvant suspension injection and the administration was continued daily for 21 days. One group of ten rats was used for the test drug. Standard, adjuvant-injected control and non-injected control groups were run along with the test drug. Control animals received vehicle (10 ml/kg). Injected and non-injected paw volumes were determined on the day the adjuvant suspension was given, and on subsequent days thereafter (usually days 5, 10, 18, and 21) by the method of C. A. Winter, et al., Proc. Soc. Exp. Biol. Med., 111, 544 (1962).
The percent inhibition of paw volume (injected and non-injected paw) were calculated by the following formula: [formula] The results of the adjuvant-induced polyarthritis syndrome test procedure for several of the compounds of this invention are provided in Table 2.

[3] = tested on: carrageenan-induced rat paw edema; test: carrageenan-induced rat paw edema antiinflammatory assay; type: in vivo; details: screening dose of 100 mg/kg, p.o.

Row | Structure (SMILES) | Analgesic Activity, % Inhibition of Writhing [1] | percent inhibition of paw volume, Adjuvant-Treated Paw ([2]; screening dose of 50 mg/kg) | percent inhibition of paw volume, Non-Injected Paw ([2]; screening dose of 50 mg/kg) | Inhibition of Carrageenan-Induced Rat Paw Edema, Percent Inhibition [3] | further results
1 | O=C(Nc1cccc(Cl)c1)c1nc(-c2ccccc2)c2ccccc2c1O [Example 3, N-(3-Chlorophenyl)-4-hydroxy-1-phenyl-3-isoquinolinecarboxamide] | 51% |  |  |  | 
2 | O=C(Nc1ccccn1)c1nc(-c2ccccc2)c2ccccc2c1O [Example 1, 4-Hydroxy-1-phenyl-N-(2-pyridyl)-3-isoquinolinecarboxamide] |  |  |  |  | percent inhibition of paw volume, Adjuvant-Treated Paw ([2]; screening dose of 45 mg/kg): +1%; percent inhibition of paw volume, Non-Injected Paw ([2]; screening dose of 45 mg/kg): -17%
3 | O=C(Nc1ccc(Cl)cn1)c1nc(-c2ccccc2)c2ccccc2c1O [Example 4, N-(5-Chloro-2-pyridyl)-4-hydroxy-1-phenyl-3-isoquinolinecarboxamide] | 57% | -22% | -38% |  | 
4 | O=C(Nc1ccccc1)C1=C(O)c2ccccc2N(c2ccccc2)C1 [Example 8, 1,2-Dihydro-4-hydroxy-1-phenyl-N-phenyl-3-quinolinecarboxamide] |  | -5% | -26% | -28% | 
5 | Cc1ccc(NC(=O)c2cn(-c3ccccc3)c3ccccc3c2=O)nc1 [Example 20, 1,4-Dihydro-N-(5-methyl-2-pyridyl)-4-oxo-1-phenyl-3-quinolinecarboxamide] | 30% |  |  |  | 
6 | Cc1csc(NC(=O)C2=C(O)c3ccccc3N(c3ccccc3)C2)n1 [Example 10, 1,2-Dihydro-4-hydroxy-N-(4-methyl-2-thiazolyl)-1-phenyl-3-quinolinecarboxamide] | 36% |  |  |  | 
7 | O=C(Nc1cnccn1)c1cn(-c2ccccc2)c2ccccc2c1=O [Example 17, 1,4-Dihydro-4-oxo-1-phenyl-N-(2-pyrazinyl)-3-quinolinecarboxamide] |  | -7% | -23% | -23% | 
8 | CC(=O)Oc1ccccc1C(=O)O [Aspirin, reference compound] |  | -22% | -33% | -29% | ED50 ([1]; Mus musculus, sc, read-out: ED50 (dose effecting 50% inhibition of writhing)): 32.8 mg/kg
9 | Cc1cccc(NC(=O)c2cn(-c3ccccc3)c3ccccc3c2=O)n1 [Example 19, 1,4-Dihydro-N-(6-methyl-2-pyridyl)-4-oxo-1-phenyl-3-quinolinecarboxamide] | 35% |  |  |  | 
10 | Cc1csc(NC(=O)c2cn(-c3ccccc3)c3ccccc3c2=O)n1 [Example 18, 1,4-Dihydro-N-(4-methyl-2-thiazolyl)-4-oxo-1-phenyl-3-quinolinecarboxamide] |  | -12% | -26% | -28% | 
11 | O=C(Nc1cnccn1)C1=C(O)c2ccccc2N(c2ccccc2)C1 [Example 9, 1,2-Dihydro-4-hydroxy-1-phenyl-N-(2-pyrazinyl)-3-quinolinecarboxamide] | 31% |  |  | -24% | 
12 | O=C(Nc1ccc(Br)cn1)C1=C(O)c2ccccc2N(c2ccccc2)C1 [Example 12, N-(5-Bromo-2-pyridyl)-1,2-dihydro-4-hydroxy-1-phenyl-3-quinolinecarboxamide] | 39% | -2% | -22% |  | 
13 | O=C(Nc1ccccn1)c1cn(-c2ccccc2)c2ccccc2c1=O [Example 13, 1,4-Dihydro-4-oxo-1-phenyl-N-(2-pyridyl)-3-quinolinecarboxamide] |  |  |  | -25% | 
